Experimental data reported in publication PMC3937211, “Serine Carboxypeptidase SCPEP1 and Cathepsin A Play Complementary Roles in Regulation of Vasoconstriction via Inactivation of Endothelin-1” (PLoS Genetics, 2014).

Legend:
mesenteric arteries = test: Vessel reactivity ex vivo; parameters: species or system mouse; conditions: 10^−11–10^−8 M
Description: Vessel reactivity ex vivo was analyzed as described, [40]. Briefly, male mice were sacrificed at five months and their mesenteric arteries were isolated and mounted onto glass capillaries in an artereograph chamber filled with cold oxygenated Krebs solution (118.6 mM NaCl, 4.7 mM KCl, 1.2 mM KH2PO4, 1.2 mM MgSO4, 25.1 mM NaHCO3, 26 µM EDTA, 0.18% glucose, 2.5 mM CaCl2). The arteries were constantly perfused intraluminally with Krebs solution at 30 mmHg. After 45 minutes of equilibration vascular reactivity was measured in response to Norepinephrine (Sigma A-0937, 10^−9–10^−5 M), Acetylcholine (Sigma A-6625, 10^−9–10^−4 M), Sodium Nitroprusside (Calbiochem 56538, 10^−9–10^−4 M), Endothelin-1 (American Peptide Company 88-1-10, 10^−11–10^−8 M) and AI, (American Peptide Company 12-1-10, 10^−8–10^−4 M). Drugs were added extraluminally with a 30 min washout period in between each drug, during which the arteries were able to re-equilibrate to a baseline. To test vasodilatation arteries were pre-contracted with NE to 70% of their equilibration diameter. At least 3 concentration response curves were conducted for each vessel and at least 6 animals were studied for each genotype.

[1] = ET-1 degradation rate in mouse blood and tissues (ELISA); assay type: in vivo; conditions: tail vein injection, at least 5 mice
Description: To determine the ET-1 degradation rate we injected mice in the tail vein with an ET-1 solution in saline at a dose of […]. Fifteen minutes after injection mice were sacrificed and their lungs and aorta as well as blood were collected to measure the concentration of ET-1 by ELISA. Endogenous levels of ET-1 were measured in the animals injected with saline.
Figure 6 Mice with combined CathA/Scpep1 deficiency have reduced ET-1 degradation rate. Blood plasma, lungs and aorta were collected from WT, Scpep1 ^−/−, CathA^S190A and DD mice 15 min post an intravenous injection of saline or ET-1 in saline (10 nmol/kg BW). The levels of ET-1 peptide were measured by ELISA in lung extracts (A), aorta extracts (B), and in blood plasma extracts (C) from mice injected with ET-1 and blood plasma extracts from mice injected with saline (D). Data are expressed as mean values (±S.E). At least 5 mice were studied for each genotype. * p<0.05 in Welch's modification of two-tailed unpaired t-test. […]
For peptide extraction, tissues (200 mg) were homogenized in 1 mol/L CH3COOH/20 mM HCl. […] Quantitative assay of ET-1 was performed with an ELISA kit (Enzo Life Sciences ADI-900-020A) as described by the manufacturer.

Substance: endothelin-1 [ET-1]
- vessel reactivity versus WT mice (mesenteric arteries; mesenteric arteries of CathA^S190A and Scpep1^−/− mice): higher
- vessel reactivity versus all other groups of mice (mesenteric arteries; mesenteric arteries of CathA^S190A/Scpep1^−/− mice): significantly higher
- ET-1 concentration 15 min after injection versus WT or Scpep1-deficient animals ([1]; lungs and aorta of CathA-deficient mice): higher
- ET-1 concentration 15 min after injection versus WT, CathA-deficient or Scpep1-deficient mice ([1]; tissues or plasma of DD mice, dose printed 0.1 nmol/kg BW): significantly higher
